Consider three compounds from PubChem BioAssay AID1963831 (Molecular Pharmacology Branch, DTP, NCI, 2024).

Some results are limits rather than exact numbers.
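Note: spheroids exposed to compounds for seven days.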
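Throughout, for viability, T/C: 100% = DMSO vehicle control viability.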

One test concerns 889142-216-R-J1-PDC complex spheroid viability. The test is described as follows: Anticancer human tumor 889142-216-R-J1-PDC patient-derived bladder carcinoma cell line growth inhibition [POLQ]. The note with it: curve of first compound; second compound 0.0316 µM. The gist of the method: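 PDC + HUVEC + MSC complex spheroids; POLQ inhibitors ± partner drugs; top conc. at/near clinical Cmax, else 10 microM (SN-38 1 microM), half-log dilutions; 37 degrees C, 5% CO2.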
On to `C#Cc1c(F)ccc2cc(O)cc(-c3ncc4c(N5CC6CCC(C5)N6)nc(OCC56CCCN5CC(F)C6)nc4c3F)c12` (stereo unspecified) + Nc1ccc(C#CCN(C(=O)Cc2ncc(C(F)(F)F)cc2C(F)(F)F)c2ccc(F)cc2)nn1, for which the IC50 – broadly, the concentration that gives 50% inhibition – is over 10 µM.

For `CCc1cc2c(N3CCc4c(cc(Cn5ccnc5)cc4-c4cn(C)nc4C(F)(F)F)C3=O)cc(C)nc2c(OC)n1` + Nc1ccc(C#CCN(C(=O)Cc2ncc(C(F)(F)F)cc2C(F)(F)F)c2ccc(F)cc2)nn1, the IC50 was over 10 µM.

On to `O=C(Nc1ccc(O)c(NS(=O)(=O)c2ccc(F)cc2)c1)c1ccc(-c2ccccc2)cc1` + Nc1ccc(C#CCN(C(=O)Cc2ncc(C(F)(F)F)cc2C(F)(F)F)c2ccc(F)cc2)nn1, for which the IC50 was over 10 µM.

Staying with this test, now noted: curve of first compound; second compound 0.1 µM.
For the compound `C#Cc1c(F)ccc2cc(O)cc(-c3ncc4c(N5CC6CCC(C5)N6)nc(OCC56CCCN5CC(F)C6)nc4c3F)c12` (stereo unspecified) + Nc1ccc(C#CCN(C(=O)Cc2ncc(C(F)(F)F)cc2C(F)(F)F)c2ccc(F)cc2)nn1, the IC50 worked out at 7.63 µM.

Consider `CCc1cc2c(N3CCc4c(cc(Cn5ccnc5)cc4-c4cn(C)nc4C(F)(F)F)C3=O)cc(C)nc2c(OC)n1` + Nc1ccc(C#CCN(C(=O)Cc2ncc(C(F)(F)F)cc2C(F)(F)F)c2ccc(F)cc2)nn1, for which the IC50 was over 10 µM.

`O=C(Nc1ccc(O)c(NS(=O)(=O)c2ccc(F)cc2)c1)c1ccc(-c2ccccc2)cc1` + Nc1ccc(C#CCN(C(=O)Cc2ncc(C(F)(F)F)cc2C(F)(F)F)c2ccc(F)cc2)nn1: the 50% inhibitory concentration (IC50) was over 10 µM.

The same test, now with this note: curve of first compound; second compound 0.316 µM.
With `C#Cc1c(F)ccc2cc(O)cc(-c3ncc4c(N5CC6CCC(C5)N6)nc(OCC56CCCN5CC(F)C6)nc4c3F)c12` (stereo unspecified) + Nc1ccc(C#CCN(C(=O)Cc2ncc(C(F)(F)F)cc2C(F)(F)F)c2ccc(F)cc2)nn1, the IC50 was over 10 µM.

As for `CCc1cc2c(N3CCc4c(cc(Cn5ccnc5)cc4-c4cn(C)nc4C(F)(F)F)C3=O)cc(C)nc2c(OC)n1` + Nc1ccc(C#CCN(C(=O)Cc2ncc(C(F)(F)F)cc2C(F)(F)F)c2ccc(F)cc2)nn1, the IC50 is over 10 µM.

As to `O=C(Nc1ccc(O)c(NS(=O)(=O)c2ccc(F)cc2)c1)c1ccc(-c2ccccc2)cc1` + Nc1ccc(C#CCN(C(=O)Cc2ncc(C(F)(F)F)cc2C(F)(F)F)c2ccc(F)cc2)nn1, the IC50 is over 10 µM.

Still in this test, the particulars now being: curve of first compound; second compound 1 µM.
`C#Cc1c(F)ccc2cc(O)cc(-c3ncc4c(N5CC6CCC(C5)N6)nc(OCC56CCCN5CC(F)C6)nc4c3F)c12` (stereo unspecified) + Nc1ccc(C#CCN(C(=O)Cc2ncc(C(F)(F)F)cc2C(F)(F)F)c2ccc(F)cc2)nn1: the IC50 was over 10 µM.

Regarding `CCc1cc2c(N3CCc4c(cc(Cn5ccnc5)cc4-c4cn(C)nc4C(F)(F)F)C3=O)cc(C)nc2c(OC)n1` + Nc1ccc(C#CCN(C(=O)Cc2ncc(C(F)(F)F)cc2C(F)(F)F)c2ccc(F)cc2)nn1, the IC50 is over 10 µM.

In the case of `O=C(Nc1ccc(O)c(NS(=O)(=O)c2ccc(F)cc2)c1)c1ccc(-c2ccccc2)cc1` + Nc1ccc(C#CCN(C(=O)Cc2ncc(C(F)(F)F)cc2C(F)(F)F)c2ccc(F)cc2)nn1, the IC50 was over 10 µM.

Still in this test, the particulars now being: curve of first compound; second compound 3.16 µM.
Turning to `C#Cc1c(F)ccc2cc(O)cc(-c3ncc4c(N5CC6CCC(C5)N6)nc(OCC56CCCN5CC(F)C6)nc4c3F)c12` (stereo unspecified) + Nc1ccc(C#CCN(C(=O)Cc2ncc(C(F)(F)F)cc2C(F)(F)F)c2ccc(F)cc2)nn1, the IC50 was over 10 µM.

Turning to `CCc1cc2c(N3CCc4c(cc(Cn5ccnc5)cc4-c4cn(C)nc4C(F)(F)F)C3=O)cc(C)nc2c(OC)n1` + Nc1ccc(C#CCN(C(=O)Cc2ncc(C(F)(F)F)cc2C(F)(F)F)c2ccc(F)cc2)nn1, the IC50 was over 10 µM.

As to `O=C(Nc1ccc(O)c(NS(=O)(=O)c2ccc(F)cc2)c1)c1ccc(-c2ccccc2)cc1` + Nc1ccc(C#CCN(C(=O)Cc2ncc(C(F)(F)F)cc2C(F)(F)F)c2ccc(F)cc2)nn1, the IC50 is over 10 µM.

The test is the same for the next values; noted with them: curve of first compound; second compound 10 µM.
Consider `C#Cc1c(F)ccc2cc(O)cc(-c3ncc4c(N5CC6CCC(C5)N6)nc(OCC56CCCN5CC(F)C6)nc4c3F)c12` (stereo unspecified) + Nc1ccc(C#CCN(C(=O)Cc2ncc(C(F)(F)F)cc2C(F)(F)F)c2ccc(F)cc2)nn1, for which the IC50 came to 7.61 µM.

For `CCc1cc2c(N3CCc4c(cc(Cn5ccnc5)cc4-c4cn(C)nc4C(F)(F)F)C3=O)cc(C)nc2c(OC)n1` + Nc1ccc(C#CCN(C(=O)Cc2ncc(C(F)(F)F)cc2C(F)(F)F)c2ccc(F)cc2)nn1, the IC50 was over 10 µM.

In the case of `O=C(Nc1ccc(O)c(NS(=O)(=O)c2ccc(F)cc2)c1)c1ccc(-c2ccccc2)cc1` + Nc1ccc(C#CCN(C(=O)Cc2ncc(C(F)(F)F)cc2C(F)(F)F)c2ccc(F)cc2)nn1, the IC50 is over 10 µM.

The same test, now with this note: second compound 0.0316 µM; first compound 0.0316 µM; stronger effect = lower value.
Turning to `C#Cc1c(F)ccc2cc(O)cc(-c3ncc4c(N5CC6CCC(C5)N6)nc(OCC56CCCN5CC(F)C6)nc4c3F)c12` (stereo unspecified) + Nc1ccc(C#CCN(C(=O)Cc2ncc(C(F)(F)F)cc2C(F)(F)F)c2ccc(F)cc2)nn1, the viability, T/C (in general, the result in the treated group divided by that in the control group, in per cent) is 101%.

`CCc1cc2c(N3CCc4c(cc(Cn5ccnc5)cc4-c4cn(C)nc4C(F)(F)F)C3=O)cc(C)nc2c(OC)n1` + Nc1ccc(C#CCN(C(=O)Cc2ncc(C(F)(F)F)cc2C(F)(F)F)c2ccc(F)cc2)nn1: the viability, T/C was 98.2%.

`O=C(Nc1ccc(O)c(NS(=O)(=O)c2ccc(F)cc2)c1)c1ccc(-c2ccccc2)cc1` + Nc1ccc(C#CCN(C(=O)Cc2ncc(C(F)(F)F)cc2C(F)(F)F)c2ccc(F)cc2)nn1: the viability, T/C was 118%.

Still in this test, the particulars now being: second compound 0.0316 µM; first compound 0.1 µM; stronger effect = lower value.
Consider `C#Cc1c(F)ccc2cc(O)cc(-c3ncc4c(N5CC6CCC(C5)N6)nc(OCC56CCCN5CC(F)C6)nc4c3F)c12` (stereo unspecified) + Nc1ccc(C#CCN(C(=O)Cc2ncc(C(F)(F)F)cc2C(F)(F)F)c2ccc(F)cc2)nn1, for which the viability, T/C is 102%.

`CCc1cc2c(N3CCc4c(cc(Cn5ccnc5)cc4-c4cn(C)nc4C(F)(F)F)C3=O)cc(C)nc2c(OC)n1` + Nc1ccc(C#CCN(C(=O)Cc2ncc(C(F)(F)F)cc2C(F)(F)F)c2ccc(F)cc2)nn1: the viability, T/C was 96.9%.

In the case of `O=C(Nc1ccc(O)c(NS(=O)(=O)c2ccc(F)cc2)c1)c1ccc(-c2ccccc2)cc1` + Nc1ccc(C#CCN(C(=O)Cc2ncc(C(F)(F)F)cc2C(F)(F)F)c2ccc(F)cc2)nn1, the viability, T/C was 101%.

Still in this test, the particulars now being: second compound 0.0316 µM; first compound 0.316 µM; stronger effect = lower value.
Take `C#Cc1c(F)ccc2cc(O)cc(-c3ncc4c(N5CC6CCC(C5)N6)nc(OCC56CCCN5CC(F)C6)nc4c3F)c12` (stereo unspecified) + Nc1ccc(C#CCN(C(=O)Cc2ncc(C(F)(F)F)cc2C(F)(F)F)c2ccc(F)cc2)nn1: the viability, T/C was 75%.

Consider `CCc1cc2c(N3CCc4c(cc(Cn5ccnc5)cc4-c4cn(C)nc4C(F)(F)F)C3=O)cc(C)nc2c(OC)n1` + Nc1ccc(C#CCN(C(=O)Cc2ncc(C(F)(F)F)cc2C(F)(F)F)c2ccc(F)cc2)nn1, for which the viability, T/C was 109%.

Turning to `O=C(Nc1ccc(O)c(NS(=O)(=O)c2ccc(F)cc2)c1)c1ccc(-c2ccccc2)cc1` + Nc1ccc(C#CCN(C(=O)Cc2ncc(C(F)(F)F)cc2C(F)(F)F)c2ccc(F)cc2)nn1, the viability, T/C is 83.9%.

The same test, now with this note: second compound 0.0316 µM; first compound 1 µM; stronger effect = lower value.
On to `C#Cc1c(F)ccc2cc(O)cc(-c3ncc4c(N5CC6CCC(C5)N6)nc(OCC56CCCN5CC(F)C6)nc4c3F)c12` (stereo unspecified) + Nc1ccc(C#CCN(C(=O)Cc2ncc(C(F)(F)F)cc2C(F)(F)F)c2ccc(F)cc2)nn1, for which the viability, T/C was 74.6%.

Consider `CCc1cc2c(N3CCc4c(cc(Cn5ccnc5)cc4-c4cn(C)nc4C(F)(F)F)C3=O)cc(C)nc2c(OC)n1` + Nc1ccc(C#CCN(C(=O)Cc2ncc(C(F)(F)F)cc2C(F)(F)F)c2ccc(F)cc2)nn1, for which the viability, T/C was 126%.

With `O=C(Nc1ccc(O)c(NS(=O)(=O)c2ccc(F)cc2)c1)c1ccc(-c2ccccc2)cc1` + Nc1ccc(C#CCN(C(=O)Cc2ncc(C(F)(F)F)cc2C(F)(F)F)c2ccc(F)cc2)nn1, the viability, T/C is 110%.

Staying with this test, now noted: second compound 0.0316 µM; first compound 3.16 µM; stronger effect = lower value.
On to `C#Cc1c(F)ccc2cc(O)cc(-c3ncc4c(N5CC6CCC(C5)N6)nc(OCC56CCCN5CC(F)C6)nc4c3F)c12` (stereo unspecified) + Nc1ccc(C#CCN(C(=O)Cc2ncc(C(F)(F)F)cc2C(F)(F)F)c2ccc(F)cc2)nn1, for which the viability, T/C was 84.8%.
